# Results: ChEMBL document CHEMBL1201862, “PubChem BioAssay data set” (2004)
# Active and inactive are the calls of the source.
# What was measured:
# [1] = HIV-1 Vif–A3G interaction blockers – biochemical, TR-FRET, GST-Vif 1-94, biotin-A3G peptide, dose response retest, primary screen (AID 1117319); assay type: functional;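 further: TR-FRET signal of purified GST-Vif binding a biotinylated A3G peptide; inhibitors lower the FRET signal by blocking Vif and A3G binding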
# [2] = IC50 of Artemis nuclease activity blockers – biochemical, fluorescence intensity, dose response (AID 720701); assay type: functional;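 further: Artemis endonuclease enzyme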
# [3] = target: Estrogen receptor beta (Homo sapiens, UniProt Q92731); assay: blockers of SRC-3 recruitment to ERβ – biochemical, ELISA, streptavidin-HRP readout, orthogonal assay, confirmation (AID 1060)
# [4] = HPDE-C7 pancreatic duct cell viability loss – fluorescence, HTS (AID 430); assay type: functional, cell-based; details: Homo sapiens
# [5] = target: Dual specificity protein phosphatase 6 (Rattus norvegicus, UniProt Q64346); assay: inhibition of rat DUSP6 enzyme activity – biochemical, in vitro, primary screen (AID 425)
# [6] = viability loss in THP-1 monocytes – THP-1 cells, cytotoxicity control for Vif-APOBEC3G degradation inhibitor project, dose response (AID 1117359); assay type: functional; details: THP-1
# [7] = viability loss of HPDE-C7K cells – cell-based, fluorescence, HTS, primary screen (AID 431); assay type: functional; details: Homo sapiens
# [8] = target: Protein Tat (Human immunodeficiency virus type 1 group M subtype B (isolate HXB2)(HIV-1), UniProt P04608); assay type: functional;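 further: tat binding to TAR RNA read out by fluorescence polarization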
# [9] = target: 5-hydroxytryptamine receptor 1A (Homo sapiens, UniProt P08908); assay type: functional
# [10] = target: Aryl hydrocarbon receptor (Homo sapiens, UniProt P35869); assay: Luminescence-based cell-based high throughput dose response assay for activators of the Aryl Hydrocarbon Receptor (AHR). [Related pubchem assays: 2796 (Primary screen (AHR activators in singlicate)), 2845 (Confirmation screen (AHR activators in triplicate)), 434939 (Counterscreen (PXR activators in triplicate)), 2804 (Summary (AHR activators))]; assay type: ADME
# [11] = Luminescence Cell-Based Dose Confirmation HTS to Identify Inhibitors of Polyadenylation.; assay type: functional
# [12] = microbe, parasite or virus in culture; assay type: functional; details: Mycobacterium tuberculosis
# [13] = reduction of Shn3 3'UTR-driven luciferase in osteoblasts – cell-based, Clone20 osteoblasts, firefly luciferase, cherry-picked, dose response (AID 624132); assay type: functional;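 further: firefly luciferase luminescence from reporter carrying the Shn3 3'UTR in osteoblasts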
# [14] = system: Jurkat; assay: blockers of NF-kB activation in T cells – Jurkat, luciferase reporter, luminescence, B- and T-cell, dose response (AID 489004); assay type: functional, cell-based; details: Homo sapiens;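 further: NF-kB luciferase reporter Jurkat cells stimulated with PMA plus ionomycin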
# [15] = cells; assay type: functional, cell-based
# [16] = alpha-synuclein stem-loop luciferase translation blockers – H4 neuroglioma cells, luminescence, confirmation (AID 1988); assay type: functional, cell-based
# [17] = NIH-3T3 fibroblast cytotoxicity, dose response, cytotoxicity control, cell-based, fluorescence, Alamar Blue, secondary assay (AID 2327); assay type: functional;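 further: NIH-3T3 mouse fibroblasts cultured with fluconazole at 8 µg/mL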
# [18] = target: Dual specificity tyrosine-phosphorylation-regulated kinase 1A (Rattus norvegicus, UniProt Q63470); assay type: biochemical, Homo sapiens
# [19] = Luminescence Cell-Based Dose Response HTS to Identify Inhibitors of 5'UTR Stem-Loop Driven Prion Protein mRNA Translation in H4 Neuroglioblastoma Cells. [Related pubchem assays: 1827 (Project Summary), 1813 (Primary HTS)]; assay type: functional
# [20] = HEK-293T viability loss, compound-treated – cell-based, uHTS hits, cytotoxicity control for B/T-cell NF-kB inhibitor project, dose response (AID 489019); assay type: functional;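 further: IC50 reflects cytotoxicity as loss of cell viability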
# [21] = system: Vero; assay: cells; assay type: functional, cell-based; details: Chlorocebus sabaeus
# [22] = target: Cyclin-dependent kinase 5/CDK5 activator 1 (Homo sapiens, UniProt Q00535); assay: blockade of human CDK5 activity – biochemical, cherry-picked samples, set 2, dose response (AID 504545)
# [23] = alpha-synuclein stem-loop translation blockers – luminescence, H4 neuroglioblastoma cells, dose confirmation, confirmation (AID 2454); assay type: functional, cell-based;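 further: H4 neuroglioblastoma cells carrying an alpha-synuclein 5'UTR luciferase reporter; potency for inhibition of the luciferase signal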
# [24] = fluconazole-exposed Candida albicans growth modulators – fluorescence, retest, confirmation (AID 2467); assay type: functional, cell-based
# [25] = luciferase reporter signal reduction – luminescence, H4-C neuroglioblastoma cells, dose response (AID 2458); assay type: functional, cell-based;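 further: H4 neuroglioblastoma cells stably carrying a luciferase reporter gene fusion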
# [26] = non-specific 3'UTR reporter inhibition in Clone20-Shn3RL – cell-based, Renilla luciferase, cherry-picked, counter-screen for Shn3 inhibitor project, dose response (AID 624133); assay type: functional
# [27] = system: Vero; assay: mammalian cell viability reduction – secondary assay, cytotoxicity control for West Nile virus antiviral project, dose response (AID 1650); assay type: functional; details: Chlorocebus sabaeus
# [28] = NIH3T3 cell viability loss – ATP luminescence, mouse fibroblasts, counter-screen, dose response (AID 2010); assay type: functional, cell-based;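 further: cells exposed to compound for about 90 hours before reading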
# [29] = target: Nonstructural protein 1 (Influenza A virus, UniProt Q194T2); assay type: functional, Influenza A virus (A/California/07/2009(H1N1))
# [30] = target: T1, Protein RecA (Mycobacterium tuberculosis, UniProt P9WHJ3); assay: Fluorescence Cell-Free Homogeneous Dose Retest to Identify Inhibitors of RecA-Intein Splicing Activity. [Related pubchem assays (depositor defined):AID2097, AID2223, AID489010, AID492950]; assay type: functional
# T1 sequence (P9WHJ3 whole entry): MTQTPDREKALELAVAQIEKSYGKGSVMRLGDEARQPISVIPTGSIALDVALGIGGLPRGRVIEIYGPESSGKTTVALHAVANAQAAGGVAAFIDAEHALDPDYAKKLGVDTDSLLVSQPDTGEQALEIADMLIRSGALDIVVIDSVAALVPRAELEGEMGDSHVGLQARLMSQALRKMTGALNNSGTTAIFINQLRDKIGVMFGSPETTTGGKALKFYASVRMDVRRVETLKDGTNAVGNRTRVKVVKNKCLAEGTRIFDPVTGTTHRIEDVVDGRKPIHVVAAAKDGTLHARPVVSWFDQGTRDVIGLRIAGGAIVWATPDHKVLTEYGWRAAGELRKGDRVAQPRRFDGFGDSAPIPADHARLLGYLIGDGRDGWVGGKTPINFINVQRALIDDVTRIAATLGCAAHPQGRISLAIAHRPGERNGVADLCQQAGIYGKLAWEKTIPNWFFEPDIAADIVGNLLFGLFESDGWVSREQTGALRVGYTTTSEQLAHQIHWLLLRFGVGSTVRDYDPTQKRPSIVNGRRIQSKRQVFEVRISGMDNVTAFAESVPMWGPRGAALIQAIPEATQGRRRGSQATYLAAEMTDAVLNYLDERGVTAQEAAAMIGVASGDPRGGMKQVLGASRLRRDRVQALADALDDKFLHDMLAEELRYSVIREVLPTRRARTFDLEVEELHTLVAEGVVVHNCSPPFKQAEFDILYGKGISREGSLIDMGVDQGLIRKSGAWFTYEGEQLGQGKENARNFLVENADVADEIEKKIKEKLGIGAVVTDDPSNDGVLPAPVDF
# [31] = target: T2, Sentrin-specific protease 8 (Homo sapiens, UniProt Q96LD8); assay type: functional
# T2 sequence (Q96LD8 whole entry): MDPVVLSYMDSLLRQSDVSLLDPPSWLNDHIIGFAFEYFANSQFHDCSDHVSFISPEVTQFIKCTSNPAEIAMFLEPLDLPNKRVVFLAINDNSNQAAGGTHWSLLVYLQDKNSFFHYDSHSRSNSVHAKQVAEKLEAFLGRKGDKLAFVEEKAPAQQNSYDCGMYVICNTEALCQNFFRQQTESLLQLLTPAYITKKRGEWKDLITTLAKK
# [32] = Trypanosoma cruzi growth suppression in host cells – NIH3T3 host cells, beta-gal luminescence, confirmation (AID 2044); assay type: functional, cell-based;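 further: intracellular parasites grown in NIH/3T3 mouse fibroblasts as host cells; luminescent beta-galactosidase reporter signal from transgenic T. cruzi replicating inside host cells; inhibitors lower the luminescence signal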
# [33] = Luminescence Cell-Based Dose Response HTS to Identify Activators of Luciferase Translation or Activity in H4 […] Cells. [Related pubchem assays: 1829 (Project Summary), 1814 (Primary HTS)]; assay type: functional
# [34] = target: T3, Caspase-3 (Homo sapiens, UniProt P42574); assay: Dose-response confirmation of uHTS inhibitor hits of Sentrin-Specific Protease 8 in a Caspase-3 Fluorescence assay.; assay type: functional
# T3 sequence (P42574 whole entry): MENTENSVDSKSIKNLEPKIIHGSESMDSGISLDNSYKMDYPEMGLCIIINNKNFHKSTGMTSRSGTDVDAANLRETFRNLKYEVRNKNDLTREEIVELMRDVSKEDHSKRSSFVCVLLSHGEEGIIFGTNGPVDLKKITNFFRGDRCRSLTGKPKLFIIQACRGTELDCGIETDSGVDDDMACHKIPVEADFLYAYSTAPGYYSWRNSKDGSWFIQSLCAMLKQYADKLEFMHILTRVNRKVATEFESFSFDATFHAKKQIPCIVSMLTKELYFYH
# [35] = Luminescence Cell-Based Dose Confirmation HTS to Identify Activators of 5'UTR Stem-Loop Driven Alpha-Synuclein mRNA Translation in H4 Neuroglioblastoma Cells. [Related pubchem assays: 1829 (Project Summary), 1814 (Primary HTS)]; assay type: functional
# [36] = system: H4; assay: Luminescence Cell-Based Dose Response HTS to Identify Activators of 5'UTR Stem-Loop Driven Prion Protein mRNA Translation in H4 Neuroglioblastoma Cells. [Related pubchem assays: 1829 (Project Summary), 1814 (Primary HTS)]; assay type: functional; details: Homo sapiens
# [37] = target: Peroxisome proliferator-activated receptor gamma/Nuclear receptor corepressor 2 (Homo sapiens, UniProt P37231+Q9Y618); assay: Counterscreen for NR2E3 inverse agonists: TR-FRET-based biochemical high throughput dose response assay to identify inverse agonists of the interaction between peroxisome proliferator-activated receptor gamma (PPARg) and nuclear receptor co-repressor 2 (NCOR2).; assay type: functional
# [38] = target: Photoreceptor-specific nuclear receptor (Homo sapiens, UniProt Q9Y5X4); assay: ligands suppressing NR2E3 nuclear receptor activity – biochemical, TR-FRET, dose response (AID 463256); assay type: functional
# [39] = target: T4, Replicative DNA helicase DnaB (Mycobacterium tuberculosis, UniProt P9WMR3); assay: DnaB intein splicing inhibitors, dose response, biochemical, cell-free fluorescence (AID 449749); assay type: functional
# T4 sequence (P9WMR3 whole entry): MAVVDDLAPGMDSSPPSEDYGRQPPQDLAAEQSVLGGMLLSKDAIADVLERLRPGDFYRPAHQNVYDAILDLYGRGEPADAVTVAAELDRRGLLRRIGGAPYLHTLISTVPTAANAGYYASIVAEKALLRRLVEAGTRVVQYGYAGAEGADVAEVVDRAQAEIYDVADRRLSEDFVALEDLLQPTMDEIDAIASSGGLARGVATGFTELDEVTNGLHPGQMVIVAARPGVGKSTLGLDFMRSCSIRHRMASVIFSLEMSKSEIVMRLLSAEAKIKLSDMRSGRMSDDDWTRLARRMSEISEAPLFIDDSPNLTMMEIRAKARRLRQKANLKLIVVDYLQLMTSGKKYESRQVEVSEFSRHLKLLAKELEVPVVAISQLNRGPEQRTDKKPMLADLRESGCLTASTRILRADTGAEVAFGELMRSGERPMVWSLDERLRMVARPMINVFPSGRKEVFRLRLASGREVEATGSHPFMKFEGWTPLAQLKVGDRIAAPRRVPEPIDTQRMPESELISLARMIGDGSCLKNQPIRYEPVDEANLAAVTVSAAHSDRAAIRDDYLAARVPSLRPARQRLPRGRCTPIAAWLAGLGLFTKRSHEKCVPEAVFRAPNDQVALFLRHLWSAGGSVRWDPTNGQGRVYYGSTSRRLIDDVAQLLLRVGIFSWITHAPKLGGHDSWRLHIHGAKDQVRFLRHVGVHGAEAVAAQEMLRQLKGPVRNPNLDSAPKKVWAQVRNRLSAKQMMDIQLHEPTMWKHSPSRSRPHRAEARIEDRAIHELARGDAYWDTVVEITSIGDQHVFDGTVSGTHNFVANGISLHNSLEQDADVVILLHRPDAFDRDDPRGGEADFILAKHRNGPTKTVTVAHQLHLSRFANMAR
# [40] = target: T2, Sentrin-specific protease 8; assay type: functional; remark: listed apart in the source
# Peroxisome proliferator-activated receptor gamma/Nuclear receptor corepressor 2, sequence (P37231 whole entry): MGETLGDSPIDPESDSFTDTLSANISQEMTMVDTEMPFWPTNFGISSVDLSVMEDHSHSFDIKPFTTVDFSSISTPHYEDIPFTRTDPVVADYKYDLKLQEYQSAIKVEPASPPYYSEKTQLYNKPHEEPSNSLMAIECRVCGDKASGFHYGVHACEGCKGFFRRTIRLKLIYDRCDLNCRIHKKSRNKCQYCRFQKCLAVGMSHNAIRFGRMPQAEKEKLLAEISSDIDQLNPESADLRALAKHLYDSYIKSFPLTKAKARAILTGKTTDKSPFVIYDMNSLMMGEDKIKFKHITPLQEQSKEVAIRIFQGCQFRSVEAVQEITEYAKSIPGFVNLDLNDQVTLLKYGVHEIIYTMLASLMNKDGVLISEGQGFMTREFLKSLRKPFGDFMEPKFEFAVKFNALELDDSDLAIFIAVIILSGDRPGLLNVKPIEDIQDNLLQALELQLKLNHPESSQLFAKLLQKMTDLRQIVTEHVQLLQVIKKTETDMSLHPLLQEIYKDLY
# Peroxisome proliferator-activated receptor gamma/Nuclear receptor corepressor 2, sequence (Q9Y618 whole entry): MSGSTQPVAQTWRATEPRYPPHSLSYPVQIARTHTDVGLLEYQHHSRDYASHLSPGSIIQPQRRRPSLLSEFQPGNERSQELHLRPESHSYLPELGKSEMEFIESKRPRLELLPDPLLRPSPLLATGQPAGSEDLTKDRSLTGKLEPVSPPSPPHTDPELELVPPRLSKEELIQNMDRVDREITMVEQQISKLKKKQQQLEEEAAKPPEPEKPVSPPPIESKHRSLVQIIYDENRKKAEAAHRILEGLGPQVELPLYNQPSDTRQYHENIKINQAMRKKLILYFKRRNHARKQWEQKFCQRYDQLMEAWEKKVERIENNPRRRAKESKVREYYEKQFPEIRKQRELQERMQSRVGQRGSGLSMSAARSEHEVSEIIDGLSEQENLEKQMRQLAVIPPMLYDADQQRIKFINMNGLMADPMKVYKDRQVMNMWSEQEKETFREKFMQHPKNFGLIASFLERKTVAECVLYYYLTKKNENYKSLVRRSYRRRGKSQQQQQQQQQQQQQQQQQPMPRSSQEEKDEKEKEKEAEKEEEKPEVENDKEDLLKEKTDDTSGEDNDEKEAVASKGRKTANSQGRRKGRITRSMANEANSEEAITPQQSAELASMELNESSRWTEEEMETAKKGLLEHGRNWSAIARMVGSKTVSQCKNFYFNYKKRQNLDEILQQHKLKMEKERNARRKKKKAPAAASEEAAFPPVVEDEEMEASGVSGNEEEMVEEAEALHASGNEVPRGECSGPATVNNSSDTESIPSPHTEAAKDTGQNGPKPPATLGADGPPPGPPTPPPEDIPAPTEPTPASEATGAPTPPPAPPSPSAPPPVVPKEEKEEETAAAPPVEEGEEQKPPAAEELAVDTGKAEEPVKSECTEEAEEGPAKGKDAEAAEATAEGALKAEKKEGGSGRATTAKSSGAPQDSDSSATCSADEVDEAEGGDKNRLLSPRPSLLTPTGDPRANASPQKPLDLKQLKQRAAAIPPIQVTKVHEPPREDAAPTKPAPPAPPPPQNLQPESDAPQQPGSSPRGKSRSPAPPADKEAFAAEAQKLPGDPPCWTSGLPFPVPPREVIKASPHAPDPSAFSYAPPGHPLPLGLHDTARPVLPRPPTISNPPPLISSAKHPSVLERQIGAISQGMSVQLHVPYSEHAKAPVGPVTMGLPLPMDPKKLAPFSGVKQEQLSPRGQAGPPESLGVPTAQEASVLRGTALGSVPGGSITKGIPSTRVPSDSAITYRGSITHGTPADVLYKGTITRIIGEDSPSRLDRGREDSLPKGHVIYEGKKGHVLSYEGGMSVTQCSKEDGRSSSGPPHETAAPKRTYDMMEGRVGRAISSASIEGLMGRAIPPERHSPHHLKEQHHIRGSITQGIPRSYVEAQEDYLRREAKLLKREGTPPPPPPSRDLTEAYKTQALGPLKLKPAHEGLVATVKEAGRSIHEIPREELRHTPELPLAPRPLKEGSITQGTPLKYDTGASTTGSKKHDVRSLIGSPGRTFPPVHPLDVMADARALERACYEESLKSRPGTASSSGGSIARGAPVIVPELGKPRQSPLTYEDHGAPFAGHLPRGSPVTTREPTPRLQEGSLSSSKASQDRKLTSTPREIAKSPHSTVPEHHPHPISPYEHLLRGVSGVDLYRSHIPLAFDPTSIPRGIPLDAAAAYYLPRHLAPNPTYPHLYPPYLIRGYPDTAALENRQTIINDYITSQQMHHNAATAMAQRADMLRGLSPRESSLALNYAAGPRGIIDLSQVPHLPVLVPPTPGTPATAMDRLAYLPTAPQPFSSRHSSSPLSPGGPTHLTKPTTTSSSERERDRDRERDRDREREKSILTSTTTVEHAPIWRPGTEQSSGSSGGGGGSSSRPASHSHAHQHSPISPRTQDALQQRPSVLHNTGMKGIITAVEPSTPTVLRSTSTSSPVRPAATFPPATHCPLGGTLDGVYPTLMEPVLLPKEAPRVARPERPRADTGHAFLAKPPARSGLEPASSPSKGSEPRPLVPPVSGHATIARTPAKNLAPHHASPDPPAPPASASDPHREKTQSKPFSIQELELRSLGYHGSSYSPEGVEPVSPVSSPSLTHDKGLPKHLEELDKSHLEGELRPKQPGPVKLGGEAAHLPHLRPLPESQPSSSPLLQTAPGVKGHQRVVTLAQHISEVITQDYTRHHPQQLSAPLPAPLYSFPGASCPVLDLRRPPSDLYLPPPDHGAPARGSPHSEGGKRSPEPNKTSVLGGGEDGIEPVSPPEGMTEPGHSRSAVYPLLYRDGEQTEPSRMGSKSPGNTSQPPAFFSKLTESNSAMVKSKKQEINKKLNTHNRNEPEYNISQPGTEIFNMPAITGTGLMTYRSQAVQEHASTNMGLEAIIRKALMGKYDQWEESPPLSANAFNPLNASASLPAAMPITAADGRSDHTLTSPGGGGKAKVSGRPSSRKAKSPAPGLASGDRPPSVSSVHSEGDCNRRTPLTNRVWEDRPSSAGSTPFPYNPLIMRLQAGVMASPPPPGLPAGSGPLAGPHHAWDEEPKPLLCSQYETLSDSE
# Dual specificity protein phosphatase 6, sequence (Q64346 whole entry): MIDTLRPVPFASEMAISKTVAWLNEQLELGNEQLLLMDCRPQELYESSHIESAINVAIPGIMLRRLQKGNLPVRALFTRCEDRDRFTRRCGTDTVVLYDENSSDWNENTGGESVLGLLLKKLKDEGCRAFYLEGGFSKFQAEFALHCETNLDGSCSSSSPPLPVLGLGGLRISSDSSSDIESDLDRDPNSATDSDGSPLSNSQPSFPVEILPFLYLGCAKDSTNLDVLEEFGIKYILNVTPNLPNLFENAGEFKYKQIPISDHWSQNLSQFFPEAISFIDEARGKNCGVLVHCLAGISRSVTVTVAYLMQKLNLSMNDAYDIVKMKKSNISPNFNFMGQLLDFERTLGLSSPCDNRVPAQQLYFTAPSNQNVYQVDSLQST
# Photoreceptor-specific nuclear receptor, sequence (Q9Y5X4 whole entry): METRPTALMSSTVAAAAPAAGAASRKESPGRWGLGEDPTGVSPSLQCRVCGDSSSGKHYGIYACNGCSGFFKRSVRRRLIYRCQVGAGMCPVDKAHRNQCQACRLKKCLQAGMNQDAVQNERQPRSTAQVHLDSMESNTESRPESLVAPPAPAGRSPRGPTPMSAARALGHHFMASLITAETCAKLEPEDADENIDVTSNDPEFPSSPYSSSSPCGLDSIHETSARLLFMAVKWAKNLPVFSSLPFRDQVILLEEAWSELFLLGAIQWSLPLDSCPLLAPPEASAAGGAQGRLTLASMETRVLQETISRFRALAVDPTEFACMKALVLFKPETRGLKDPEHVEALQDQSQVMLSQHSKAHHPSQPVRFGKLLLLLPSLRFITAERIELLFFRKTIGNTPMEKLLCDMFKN
# 5-hydroxytryptamine receptor 1A, sequence (P08908 whole entry): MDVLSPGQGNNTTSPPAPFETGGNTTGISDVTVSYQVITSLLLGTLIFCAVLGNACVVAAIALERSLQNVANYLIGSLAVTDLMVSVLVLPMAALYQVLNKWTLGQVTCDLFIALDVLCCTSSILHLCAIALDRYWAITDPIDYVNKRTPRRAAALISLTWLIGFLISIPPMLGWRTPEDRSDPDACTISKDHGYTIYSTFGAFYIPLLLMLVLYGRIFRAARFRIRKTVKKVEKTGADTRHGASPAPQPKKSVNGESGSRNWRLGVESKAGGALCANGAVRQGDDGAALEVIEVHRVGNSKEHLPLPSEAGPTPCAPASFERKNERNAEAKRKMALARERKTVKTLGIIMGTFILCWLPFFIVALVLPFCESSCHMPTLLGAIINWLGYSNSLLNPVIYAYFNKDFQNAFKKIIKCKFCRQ
# Protein Tat, sequence (P04608 whole entry): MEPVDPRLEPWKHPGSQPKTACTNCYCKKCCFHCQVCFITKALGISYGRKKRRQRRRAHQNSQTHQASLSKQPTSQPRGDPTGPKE
# Cyclin-dependent kinase 5/CDK5 activator 1, sequence (Q00535 whole entry): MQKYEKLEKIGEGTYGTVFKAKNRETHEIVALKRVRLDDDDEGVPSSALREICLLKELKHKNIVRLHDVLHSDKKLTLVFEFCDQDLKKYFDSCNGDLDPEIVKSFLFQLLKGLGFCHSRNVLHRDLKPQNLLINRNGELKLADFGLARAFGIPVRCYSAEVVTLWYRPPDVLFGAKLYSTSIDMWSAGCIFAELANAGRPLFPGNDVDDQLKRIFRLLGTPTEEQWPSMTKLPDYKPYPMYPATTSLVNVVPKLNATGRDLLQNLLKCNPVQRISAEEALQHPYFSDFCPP
# Cyclin-dependent kinase 5/CDK5 activator 1, sequence (Q15078 whole entry, further chain): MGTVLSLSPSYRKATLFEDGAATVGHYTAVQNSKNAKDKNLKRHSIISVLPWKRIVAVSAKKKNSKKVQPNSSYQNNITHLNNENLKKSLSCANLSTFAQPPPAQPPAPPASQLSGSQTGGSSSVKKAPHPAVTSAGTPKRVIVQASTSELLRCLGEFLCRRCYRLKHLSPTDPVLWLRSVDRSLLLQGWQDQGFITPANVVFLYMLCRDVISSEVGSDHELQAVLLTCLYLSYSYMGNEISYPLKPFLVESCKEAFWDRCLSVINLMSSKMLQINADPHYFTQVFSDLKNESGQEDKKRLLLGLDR
smiles,measurement,setting,value
CSc1nc(N(CCO)CCO)c2sc3nc(-c4ccco4)c4c(c3c2n1)CCC4,IC50,[1],> 34.6 µM (active)
same,IC50,[2],> 20 µM (inactive)
same,IC50,[3],> 50 µM (not active)
same,EC50,[4],12.6 µM (active)
same,IC50,[5],> 10 µM (not active)
same,CC50,[6],> 40 µM (active)
same,EC50,[7],5.95 µM (active)
same,IC50,[8],57.3 µM (inconclusive)
CCCCN(C)CCCNC(=O)Cn1c(=O)sc2ccccc21,EC50,[9],> 50 µM (not active)
NNc1nc(O)c2c3c(sc2n1)-c1ccccc1CC3,EC50,[10],373 nM (active)
O=C(NCCC1=CCCCC1)c1c(O)nc2ccccn2c1=O,EC50,[11],> 120 µM (not active)
OCCCNc1cc(-c2ccnc(Nc3cccc(Cl)c3)n2)ccn1,CC50,[12],< 80 nM (active)
same,AC50,[13],< 260 nM (active)
same,IC50,[14],< 160 nM (active)
same,EC50,[15],76 nM (active)
same,EC50,[16],< 100 nM (active)
same,EC50,[17],269 nM (inconclusive)
same,AC50,[18],13 nM (active)
same,EC50,[19],< 100 nM (active)
same,IC50,[20],35.3 µM (inactive)
same,IC50,[21],> 25 µM (active)
same,AC50,[22],377 nM (active)
same,EC50,[23],182 nM (active)
same,EC50,[24],666 nM (active)
same,EC50,[25],74 nM (active)
same,AC50,[26],375 nM (active)
same,CC50,[27],50 nM (active)
Cc1ccc(S(=O)(=O)NC(=O)Nc2ccc(N(C)C)cc2)cc1,EC50,[28],> 60 µM (not active)
same,IC50,[29],44.1 µM (active)
same,EC50,[30],5.18 µM (active)
same,IC50,[31],7.02 µM (active)
same,EC50,[32],1.39 µM (active)
same,EC50,[33],13 µM (active)
same,IC50,[34],18.1 µM (active)
same,EC50,[35],7.5 µM (active)
same,EC50,[36],1.97 µM (active)
same,IC50,[37],503 nM (active)
same,IC50,[38],748 nM (active)
same,AC50,[39],> 380 µM (inactive)
same,IC50,[40],7.83 µM (active)
